What follows are molecules tested against Human FP Receptor (Homo sapiens (Human), UniProt P43088) (assay: In vitro test of inhibition of human FP receptor activity, variant B-1A (PGF2α-induced calcium flux in FP-expressing CHEM1 cells)). Settings: calcium flux induced by 3 nM PGF2α, Fluo-8, some mean values from multiple determinations.
Assay type: cell-based
Text: • BSA bovine serum albumin • CRTH2 chemoattractant receptor-homologous molecule expressed on T helper type 2 cells • DMEM Dulbecco's modified Eagle's medium • DMSO dimethyl sulfoxide • DP PGD2 receptor • EC50 half-maximum effective concentration • em. emission • EP PGE2 receptor • ex. excitation • FCS fetal calf serum • FP PGF2α receptor • HEPES 2-[4-(2-hydroxyethyl)piperazin-1-yl]ethanesulfonic acid • IC50 half-maximum inhibitory concentration • IP PGI2 receptor • MES 2-(N-morpholino)ethanesulfonic acid • Pen/Strep penicillin/streptomycin • PGD2 prostaglandin D2 • PGE2 prostaglandin E2 • PGF2α prostaglandin F2α • PGI2 prostaglandin […] • TC tissue culture • TP thromboxane A2 receptor • Tris tris(hydroxymethyl)aminomethane • v/v volume to volume ratio (of a solution) • w/w weight to weight ratio (of a solution) B-1.

Sequence of Human FP Receptor (P43088 whole entry): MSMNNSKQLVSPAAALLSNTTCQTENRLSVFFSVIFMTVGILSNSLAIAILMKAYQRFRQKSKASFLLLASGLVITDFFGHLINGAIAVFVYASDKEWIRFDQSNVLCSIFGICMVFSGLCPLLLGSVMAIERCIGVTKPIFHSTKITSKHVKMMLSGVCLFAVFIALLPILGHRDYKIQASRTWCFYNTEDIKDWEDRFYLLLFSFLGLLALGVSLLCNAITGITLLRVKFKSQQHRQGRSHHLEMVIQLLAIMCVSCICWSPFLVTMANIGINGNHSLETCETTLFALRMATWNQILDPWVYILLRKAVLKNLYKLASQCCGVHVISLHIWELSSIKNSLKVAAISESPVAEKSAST

SMILES | IC50 [nM]
Cc1c(-c2ccccc2)nc2ccc(Br)cc2c1C(=O)Nc1cnc(C(=O)O)cn1 [Example 3, 5-{[(6-Bromo-3-methyl-2-phenylquinolin-4-yl)carbonyl]amino}pyrazine-2-carboxylic acid] | 170
Cc1c(-c2ccccc2)nc2ccc(Br)cc2c1C(=O)Nc1cnc(C(=O)O)nc1 [Example 4, 5-{[(6-Bromo-3-methyl-2-phenylquinolin-4-yl)carbonyl]amino}pyrimidine-2-carboxylic acid] | 880
Cc1nc(C(=O)O)ccc1NC(=O)c1c(C)c(-c2ccccc2)nc2ccc(Br)cc12 [Example 5, 5-{[(6-Bromo-3-methyl-2-phenylquinolin-4-yl)carbonyl]amino}-6-methylpyridine-2-carboxylic acid] | 905
Cc1c(-c2ccccc2)nc2ccc(Br)cc2c1C(=O)Nc1ncc(C(=O)O)cc1F [Example 6, 6-{[(6-Bromo-3-methyl-2-phenylquinolin-4-yl)carbonyl]amino}-5-fluoronicotinic acid] | 79
Cc1c(-c2ccccc2)nc2ccc(Br)cc2c1C(=O)Nc1ccc(C(=O)O)c(F)c1 [Example 8, 4-{[(6-Bromo-3-methyl-2-phenylquinolin-4-yl)carbonyl]amino}-2-fluorobenzoic acid] | 795
Cc1c(-c2ccccc2)nc2ccc(Br)cc2c1C(=O)Nc1c(F)cc(C(=O)O)cc1F [Example 12, 4-{[(6-Bromo-3-methyl-2-phenylquinolin-4-yl)carbonyl]amino}-3,5-difluorobenzoic acid] | 22
Cc1c(-c2ccccc2)nc2ccc(Br)cc2c1C(=O)Nc1c(Cl)cc(C(=O)O)cc1Cl [Example 13, 4-{[(6-Bromo-3-methyl-2-phenylquinolin-4-yl)carbonyl]amino}-3,5-dichlorobenzoic acid] | 150
CCS(=O)(=O)c1cc(C(=O)O)c(OC)cc1NC(=O)c1c(C)c(-c2ccccc2)nc2ccc(Br)cc12 [Example 27, 4-{[(6-Bromo-3-methyl-2-phenylquinolin-4-yl)carbonyl]amino}-5-(ethylsulfonyl)-2-methoxybenzoic acid] | 97
Cc1c(-c2ccccc2)nc2ccc(F)cc2c1C(=O)Nc1ccc(C(=O)O)cc1F [Example 29, 3-Fluoro-4-{[(6-fluoro-3-methyl-2-phenylquinolin-4-yl)carbonyl]amino}benzoic acid] | 890
Cc1c(-c2ccccc2)nc2ccc(I)cc2c1C(=O)Nc1ccc(C(=O)O)cc1F [Example 30, 3-Fluoro-4-{[(6-iodo-3-methyl-2-phenylquinolin-4-yl)carbonyl]amino}benzoic acid] | 6
Cc1ccc2nc(-c3ccccc3)c(C)c(C(=O)Nc3ccc(C(=O)O)cc3F)c2c1 [Example 31, 4-{[(3,6-Dimethyl-2-phenylquinolin-4-yl)carbonyl]amino}-3-fluorobenzoic acid] | 165
CCc1ccc2nc(-c3ccccc3)c(C)c(C(=O)Nc3ccc(C(=O)O)cc3F)c2c1 [Example 32, 4-{[(6-Ethyl-3-methyl-2-phenylquinolin-4-yl)carbonyl]amino}-3-fluorobenzoic acid] | 245
Cc1c(-c2ccccc2)nc2ccc(C(C)C)cc2c1C(=O)Nc1ccc(C(=O)O)cc1F [Example 33, 3-Fluoro-4-{[(6-isopropyl-3-methyl-2-phenylquinolin-4-yl)carbonyl]amino}benzoic acid] | 272
Cc1c(-c2ccccc2)nc2ccc(C(F)(F)F)cc2c1C(=O)Nc1ccc(C(=O)O)cc1F [Example 34, 3-Fluoro-4-({[3-methyl-2-phenyl-6-(trifluoromethyl)quinolin-4-yl]carbonyl}amino)benzoic acid] | 93
Cc1c(-c2ccccc2)nc2ccc(OC(F)(F)F)cc2c1C(=O)Nc1ccc(C(=O)O)cc1F [Example 35, 3-Fluoro-4-({[3-methyl-2-phenyl-6-(trifluoromethoxy)quinolin-4-yl]carbonyl}amino)benzoic acid] | 290
Cc1c(-c2ccccc2)nc2ccc([Si](C)(C)C)cc2c1C(=O)Nc1ccc(C(=O)O)cc1F [Example 36, 3-Fluoro-4-({[3-methyl-2-phenyl-6-(trimethylsilyl)quinolin-4-yl]carbonyl}amino)benzoic acid] | 78
O=C(O)c1ccc(NC(=O)c2c(CF)c(-c3ccccc3)nc3ccc(Br)cc23)c(F)c1 [Example 37, 4-({[6-Bromo-3-(fluoromethyl)-2-phenylquinolin-4-yl]carbonyl}amino)-3-fluorobenzoic acid] | 39
O=C(O)c1ccc(NC(=O)c2c(C(F)F)c(-c3ccccc3)nc3ccc(Br)cc23)c(F)c1 [Example 38, 4-({[6-Bromo-3-(difluoromethyl)-2-phenylquinolin-4-yl]carbonyl}amino)-3-fluorobenzoic acid] | 265
CCc1c(-c2ccccc2)nc2ccc(Br)cc2c1C(=O)Nc1ccc(C(=O)O)cc1F [Example 39, 4-{[(6-Bromo-3-ethyl-2-phenylquinolin-4-yl)carbonyl]amino}-3-fluorobenzoic acid] | 190
CCCc1c(-c2ccccc2)nc2ccc(Br)cc2c1C(=O)Nc1ccc(C(=O)O)cc1F [Example 40, 4-{[(6-Bromo-2-phenyl-3-propylquinolin-4-yl)carbonyl]amino}-3-fluorobenzoic acid] | 560
Cc1c(-c2ccccc2)nc2cc(Cl)c(Br)cc2c1C(=O)Nc1ccc(C(=O)O)cc1F [Example 41, 4-{[(6-Bromo-7-chloro-3-methyl-2-phenylquinolin-4-yl)carbonyl]amino}-3-fluorobenzoic acid] | 25
Cc1c(-c2ccccc2)nc2cc(Cl)c(Cl)cc2c1C(=O)Nc1ccc(C(=O)O)cc1F [Example 42, 4-{[(6,7-Dichloro-3-methyl-2-phenylquinolin-4-yl)carbonyl]amino}-3-fluorobenzoic acid] | 33

Further lines, results first:

IC50 [nM] | SMILES
166 | Cc1c(-c2ccccc2)nc2ccc(Br)cc2c1C(=O)Nc1ccc(C(=O)O)cc1 [Example 1, 4-{[(6-Bromo-3-methyl-2-phenylquinolin-4-yl)carbonyl]amino}benzoic acid]
65 | Cc1c(-c2ccccc2)nc2ccc(Br)cc2c1C(=O)Nc1ccc(C(=O)O)cc1Cl [Example 9, 4-{[(6-Bromo-3-methyl-2-phenylquinolin-4-yl)carbonyl]amino}-3-chlorobenzoic acid]
41 | Cc1c(-c2ccccc2)nc2ccc(Br)cc2c1C(=O)Nc1ccc(C(=O)O)cc1Br [Example 10, 3-Bromo-4-{[(6-bromo-3-methyl-2-phenylquinolin-4-yl)carbonyl]amino}benzoic acid]
617 | Cc1cc(C(=O)O)ccc1NC(=O)c1c(C)c(-c2ccccc2)nc2ccc(Br)cc12 [Example 14, 4-{[(6-Bromo-3-methyl-2-phenylquinolin-4-yl)carbonyl]amino}-3-methylbenzoic acid]
45 | Cc1c(-c2ccccc2)nc2ccc(Br)cc2c1C(=O)Nc1ccc(C(=O)O)cc1C(F)(F)F [Example 15, 4-{[(6-Bromo-3-methyl-2-phenylquinolin-4-yl)carbonyl]amino}-3-(trifluoromethyl)benzoic acid]
278 | Cc1c(-c2ccccc2)nc2ccc(Br)cc2c1C(=O)Nc1ccc(C(=O)O)cc1C#N [Example 16, 4-{[(6-Bromo-3-methyl-2-phenylquinolin-4-yl)carbonyl]amino}-3-cyanobenzoic acid]
335 | Cc1c(-c2ccccc2)nc2ccc(Br)cc2c1C(=O)Nc1ccc(C(=O)O)cc1N [Example 18, 3-Amino-4-{[(6-bromo-3-methyl-2-phenylquinolin-4-yl)carbonyl]amino}benzoic acid]
650 | CC(=O)Nc1cc(C(=O)O)ccc1NC(=O)c1c(C)c(-c2ccccc2)nc2ccc(Br)cc12 [Example 19, 3-Acetamido-4-{[(6-bromo-3-methyl-2-phenylquinolin-4-yl)carbonyl]amino}benzoic acid]
530 | CCNC(=O)Nc1cc(C(=O)O)ccc1NC(=O)c1c(C)c(-c2ccccc2)nc2ccc(Br)cc12 [Example 20, 4-{[(6-Bromo-3-methyl-2-phenylquinolin-4-yl)carbonyl]amino}-3-[(ethylcarbamoyl)amino]benzoic acid]
204 | COc1cc(C(=O)O)ccc1NC(=O)c1c(C)c(-c2ccccc2)nc2ccc(Br)cc12 [Example 21, 4-{[(6-Bromo-3-methyl-2-phenylquinolin-4-yl)carbonyl]amino}-3-methoxybenzoic acid]
57 | Cc1c(-c2ccccc2)nc2ccc(Br)cc2c1C(=O)Nc1ccc(C(=O)O)cc1OC(F)(F)F [Example 23, 4-{[(6-Bromo-3-methyl-2-phenylquinolin-4-yl)carbonyl]amino}-3-(trifluoromethoxy)benzoic acid]
124 | CSc1cc(C(=O)O)ccc1NC(=O)c1c(C)c(-c2ccccc2)nc2ccc(Br)cc12 [Example 24, 4-{[(6-Bromo-3-methyl-2-phenylquinolin-4-yl)carbonyl]amino}-3-(methylsulfanyl)benzoic acid]
720 | Cc1c(-c2ccccc2)nc2ccc(Br)cc2c1C(=O)Nc1ccc(C(=O)O)cc1[S+](C)[O-] (stereo not shown) [Example 25, 4-{[(6-Bromo-3-methyl-2-phenylquinolin-4-yl)carbonyl]amino}-3-(methylsulfinyl)benzoic acid]
86 | Cc1c(-c2ccccc2)nc2ccc(Br)cc2c1C(=O)Nc1ccc(C(=O)O)cc1S(C)(=O)=O [Example 26, 4-{[(6-Bromo-3-methyl-2-phenylquinolin-4-yl)carbonyl]amino}-3-(methylsulfonyl)benzoic acid]
17 | Cc1c(-c2ccccc2)nc2ccc(Br)cc2c1C(=O)Nc1ccc(C(=O)O)cc1SC(F)(F)F [Example 28, 4-{[(6-Bromo-3-methyl-2-phenylquinolin-4-yl)carbonyl]amino}-3-[(trifluoromethyl)sulfanyl]benzoic acid]

Reference: US10189788B2, “Substituted N,2-diarylquinoline-4-carboxamides and the use thereof as anti-inflammatory agents” (BAYER PHARMA AKTIENGESELLSCHAFT, priority 2014, dated 2019)
